Results: paper PMC7010297, “How the initiating ribosome copes with ppGpp to translate mRNAs” (PLoS Biology, 2020)
Values joined by “and” are separate entries in the source; they are usually repeats but may differ in a detail not shown here. Equal values may be shown once.

What was measured:
IF2 = target: T1, IF2 (Escherichia coli, UniProt P0A705); assay: IF2-Bpy-tRNAi-GNP ternary complex formation by MST; type: binding; details: S2A Fig
T1 construct: 6xHis (N); made in house
Procedure: Supplementary file pbio.3000593.s002.pdf: S2 Fig IF2-Bpy-tRNAi complex formation as a function of guanosine nucleotides. (A) IF2 concentration dependencies for Bpy-tRNAi binding in the presence of 0.5 mM of the indicated guanosine nucleotides to build IF2-tRNA-GNP ternary complexes (TCs). […] Three to five measurements were performed; mean and standard deviation are plotted (S1 Data). […] (PDF) Click here for additional data file.

IF2-bound 30S IC = target: T2, IF2-bound 30S IC (Escherichia coli, UniProt P0A705); assay: 30S IC formation by MST, guanosine nucleotide titration; type: binding; details: for MST Average / MST Replicates (a.u.): Fig 2B (GDP/ppGpp series);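 as to MST Average: lower thermophoresis signal means Bpy-tRNAi dissociation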;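 as to MST Replicates (a.u.): lower thermophoresis signal means Bpy-tRNAi dissociation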
T2 construct: 6xHis (N); made in house
T2 sequence (P0A705 whole entry, looked up): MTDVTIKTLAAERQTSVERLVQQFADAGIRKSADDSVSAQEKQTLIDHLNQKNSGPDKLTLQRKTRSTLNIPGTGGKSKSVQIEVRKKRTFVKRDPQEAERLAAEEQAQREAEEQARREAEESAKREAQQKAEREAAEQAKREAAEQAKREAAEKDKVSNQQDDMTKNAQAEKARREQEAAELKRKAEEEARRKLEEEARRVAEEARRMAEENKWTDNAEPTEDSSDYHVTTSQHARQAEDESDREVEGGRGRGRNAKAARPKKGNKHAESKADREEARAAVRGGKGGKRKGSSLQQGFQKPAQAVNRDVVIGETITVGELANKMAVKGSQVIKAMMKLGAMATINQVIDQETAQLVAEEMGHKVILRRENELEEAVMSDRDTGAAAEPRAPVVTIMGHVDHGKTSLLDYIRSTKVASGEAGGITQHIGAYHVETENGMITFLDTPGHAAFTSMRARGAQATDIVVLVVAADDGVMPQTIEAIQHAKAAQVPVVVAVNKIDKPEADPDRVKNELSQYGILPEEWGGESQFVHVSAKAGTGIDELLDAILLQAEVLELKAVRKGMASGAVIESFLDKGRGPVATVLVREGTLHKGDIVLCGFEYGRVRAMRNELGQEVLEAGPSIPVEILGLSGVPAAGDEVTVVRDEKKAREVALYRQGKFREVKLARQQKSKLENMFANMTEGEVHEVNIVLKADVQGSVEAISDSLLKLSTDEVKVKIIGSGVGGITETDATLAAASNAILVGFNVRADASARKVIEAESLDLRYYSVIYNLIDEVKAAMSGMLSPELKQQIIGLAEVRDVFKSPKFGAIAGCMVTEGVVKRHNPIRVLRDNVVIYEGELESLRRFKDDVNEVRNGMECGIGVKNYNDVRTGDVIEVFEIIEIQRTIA
Source text: To monitor the interaction of initiator tRNA and 30S ribosomal subunits, we used Microscale Thermophoresis (MST) with a fluorescently labelled initiator tRNA (Bpy-tRNAi) (Fig 1B). MST allows to measure fluorescence in a constrained space. Changes on the readout derive from molecular drifts resulting from small thermal equilibrium perturbations. Upon equilibrium perturbations, the patterns of Bpy-tRNAi migration away from the observation space are related to bound and unbound states (Fig 1B). […] On the contrary, a decrease in thermophoresis indicated the dissociation of Bpy-tRNAi. The relation between fluorescence measured at both equilibriums (Ff to Fi, after and prior to the perturbation, respectively) as a function of ligand concentration allowed to determine dissociation constants of the interaction (Fig 1C).
Continuous lines indicate nonlinear regression fittings with a quadratic equation. Three measurements were performed; mean and standard deviation are plotted (S1 Data). (B) as (A) to measure the concentration dependence for each tested guanosine nucleotide at constant IF2 (1 μM). […] Continuous lines show best fits using exponential functions. (D) Formation of 70S IC as measured by Bpy-tRNAi accommodation in the P site of the ribosome; 0.1 μM 30S ICs were formed with Bpy-tRNAi and rapidly mixed with 0.3 μM 50S subunits on a stopped-flow apparatus as described in [14]. Colors are as in (C). Continuous lines show best fits using an exponential function for a single reaction step. Each stopped-flow trace results from the mean of 5 to 7 replicates.
MST was calculated from the respective fluorescence time dependencies (S3 Fig). […] Symbols as in (B). […] Continuous lines indicate nonlinear regression fittings with quadratic (B and E) or same-site competition (G) functions. Three measurements were performed; mean and standard deviations are plotted (S1 Data).

T1 sequence (P0A705 whole entry): as the sequence (P0A705 whole entry, looked up) above

Question: Which results are given for `Nc1nc2c(ncn2[C@@H]2O[C@H](COP(=O)(O)OP(=O)(O)O)[C@@H](O)[C@H]2O)c(=O)[nH]1` [GDP, guanosine diphosphate]?
Answer: MST Average (IF2; IF2 0.08 µM): 942.60 a.u.; MST Replicates (IF2; IF2 0.08 µM): 949.60 a.u. and 944.98 a.u. and 933.23 a.u.; MST Average (IF2; IF2 0.16 µM): 942.82 a.u.; MST Replicates (IF2; IF2 0.16 µM): 948.93 a.u. and 934.15 a.u. and 945.38 a.u.; MST Average (IF2; IF2 0.31 µM): 943.82 a.u.; MST Replicates (IF2; IF2 0.31 µM): 946.47 a.u. and 934.49 a.u. and 950.50 a.u.; MST Average (IF2; IF2 0.63 µM): 944.11 a.u.; MST Replicates (IF2; IF2 0.63 µM): 935.16 a.u. and 946.20 a.u. and 950.97 a.u.; MST Average (IF2; IF2 1.25 µM): 945.61 a.u.; MST Replicates (IF2; IF2 1.25 µM): 951.42 a.u. and 947.72 a.u. and 937.68 a.u.; MST Average (IF2; IF2 2.50 µM): 948.90 a.u.; MST Replicates (IF2; IF2 2.50 µM): 941.84 a.u. and 953.50 a.u. and 951.35 a.u.; MST Average (IF2; IF2 5.00 µM): 954.49 a.u.; MST Replicates (IF2; IF2 5.00 µM): 948.07 a.u. and 955.91 a.u. and 959.48 a.u.; MST Average (IF2; IF2 10.00 µM): 962.55 a.u.; MST Replicates (IF2; IF2 10.00 µM): 958.33 a.u. and 964.33 a.u. and 964.97 a.u.; MST Average (IF2; IF2 20.00 µM): 973.27 a.u.; MST Replicates (IF2; IF2 20.00 µM): 973.71 a.u. and 974.19 a.u. and 971.91 a.u.; MST Average (IF2; IF2 40.00 µM): 980.27 a.u.; MST Replicates (IF2; IF2 40.00 µM): 984.66 a.u. and 983.20 a.u. and 972.95 a.u.; MST Average (IF2-bound 30S IC; nucleotide 0.13 µM): 933.71 a.u.; MST Replicates (a.u.) (IF2-bound 30S IC; nucleotide 0.13 µM, constant IF2 (1 μM)): 931.66 a.u. and 934.22 a.u. and 933.66 a.u. and 935.28 a.u.; MST Average (IF2-bound 30S IC; nucleotide 0.25 µM): 934.55 a.u.; MST Replicates (a.u.) (IF2-bound 30S IC; nucleotide 0.25 µM): 933.08 a.u. and 934.64 a.u. and 934.32 a.u. and 936.15 a.u.; MST Average (IF2-bound 30S IC; nucleotide 0.50 µM): 935.70 a.u.; MST Replicates (a.u.) (IF2-bound 30S IC; nucleotide 0.50 µM): 933.41 a.u. and 935.59 a.u. and 935.81 a.u. and 937.99 a.u.; MST Average (IF2-bound 30S IC; nucleotide 1.00 µM): 937.58 a.u.; MST Replicates (a.u.) (IF2-bound 30S IC; nucleotide 1.00 µM): 936.31 a.u. and 938.31 a.u. and 936.76 a.u. and 938.95 a.u.; MST Average (IF2-bound 30S IC; nucleotide 2.00 µM): 940.10 a.u.; MST Replicates (a.u.) (IF2-bound 30S IC; nucleotide 2.00 µM): 938.98 a.u. and 940.66 a.u. and 939.47 a.u. and 941.28 a.u.; MST Average (IF2-bound 30S IC; nucleotide 4.00 µM): 942.84 a.u.; MST Replicates (a.u.) (IF2-bound 30S IC; nucleotide 4.00 µM): 941.71 a.u. and 943.61 a.u. and 942.43 a.u. and 943.60 a.u.; MST Average (IF2-bound 30S IC; nucleotide 8.00 µM): 945.64 a.u.; MST Replicates (a.u.) (IF2-bound 30S IC; nucleotide 8.00 µM): 944.41 a.u. and 946.59 a.u. and 945.06 a.u. and 946.52 a.u.; MST Average (IF2-bound 30S IC; nucleotide 16.00 µM): 952.27 a.u.; MST Replicates (a.u.) (IF2-bound 30S IC; nucleotide 16.00 µM): 951.48 a.u. and 953.11 a.u. and 951.45 a.u. and 953.06 a.u.; MST Average (IF2-bound 30S IC; nucleotide 31.00 µM): 953.23 a.u.; MST Replicates (a.u.) (IF2-bound 30S IC; nucleotide 31.00 µM): 951.79 a.u. and 954.63 a.u. and 951.76 a.u. and 954.74 a.u.; MST Average (IF2-bound 30S IC; nucleotide 62.00 µM): 952.59 a.u.; MST Replicates (a.u.) (IF2-bound 30S IC; nucleotide 62.00 µM): 952.17 a.u. and 953.16 a.u. and 951.66 a.u. and 953.37 a.u.; MST Average (IF2-bound 30S IC; nucleotide 125.00 µM): 950.10 a.u.; MST Replicates (a.u.) (IF2-bound 30S IC; nucleotide 125.00 µM): 949.56 a.u. and 950.68 a.u. and 949.29 a.u. and 950.89 a.u.; promotion of Bpy-tRNAi binding (thermophoresis) in guanosine nucleotide titration (IF2-bound 30S IC; constant IF2 (1 μM)): failed to promote Bpy-tRNAi binding at any concentration
